Laboratory results reported in PMC13289212, “HIVIL: A human in vitro inflammatory liver model recapitulates immune-associated drug effects with high predictivity” (NAM journal, 2025).
Like-named read-outs stand apart in the source and are kept apart here.

What was measured:
IL-6 [1] = test: IL-6 production of iKC mono-culture; format: cell-based, human; details: result in words
Method: (§1) Enzyme-linked immunosorbent assay (ELISA) for measurement of cytokines: Interleukin-6 (IL-6), interleukin-10 (IL-10) and tumor necrosis factor alpha (TNFα) levels in the media were measured using the corresponding human-based ELISA kits (Abcam, Cambridge, United Kingdom) according to manufacturer’s instructions. The cytokine production from dosed cells was normalized with the viability value from the same well. The normalized cytokine level upon drug treatments was further presented as percentage of DMSO+LPS. Normalization to viability per well ensures that any changes in cytokines are not due to changes in cell numbers upon drug treatment and normalization to DMSO+LPS allows better comparison between different batches of experiments. This normalization approach has been used in previous studies (Rose et al. 2016).

IL-6 [2] = test: IL-6 ELISA in iPSC(F4)-derived HIVIL; format: cell-based, human; details: result in words
Method: as §1

IL-10 [3] = system: IL-10; design: method as in Bekker et al. 2016; details: ref Bekker et al. 2016; cited from earlier work
[4] = FDA-labeling information; ref Chen et al. 2016; cited from earlier work
IL-6 [5] = test: IL-6 ELISA in HIVIL (iKCs co-cultured with iHeps, LPS, 48 hr); format: cell-based, human; details: for IL-6 response: result in words; for IC50: Homo sapiens, LPS, 48 hr
Excerpt: Human iPSC cell line iPS (IMR90)-4 was purchased from WiCell Research Institute (Madison, WI), and maintained with a feeder-free method according to the instruction from […] Technologies (Vancouver, BC, Canada). The protocol of differentiation towards iKCs and iHeps as described previously with slight modification ([Tasnim et al., 2019]; [Cai et al., 2012]), respectively. […] More details are provided in Supplementary Methods. After differentiation, iKCs was harvested using 0.05 % trypsin-EDTA (Gibco, Waltham, Massachusetts, USA), while iHeps were dissociated with TrypLE^TM (Gibco). iHep suspension was further filtered through a 40 µm cell strainer to remove extracellular matrix clumps. Cell suspension was centrifuged at 1000 rpm for 5 min. For co-culture set up, tissue culture plates were coated with Rat tail collagen I (Gibco) diluted 100-fold in 0.02 N acetic acid, and incubated at 37 °C for 1 h and washed 3 times with PBS. According to the protocol optimized by [Tasnim et al. (2019)], iKCs was firstly seeded at a density of 14,000 per well on 96-well plate with Advanced DMEM (plus supplements) containing 5 % FBS. On the following day, iHeps were added at a density of 35,000 per well in Williams’ Medium E (plus supplements) (iHep: iKCs ratio = 2.5: 1). This reflects the physiological ratio of these cells in vivo under inflammatory conditions ([Tasnim et al., 2021]). Fresh media containing drugs was applied to co-cultures the next day. 50,000 cells were seeded to establish iHeps monoculture. THP-1 cells were kindly obtained from Dr. Eliza Fong and cultured as described by [Zeng et al. (2015)]. Details provided in Supplementary Methods.
(§2) Stock solutions of drugs were prepared in dimethyl sulfoxide (DMSO) and dissolved in medium prior to use. […] For these two drugs, the highest DMSO concentration was 1 %. Supernatant was collected at 48 hr for measurement of cytokines, and remaining cells were subjected to viability assay prior to lysis for RNA extraction.
as §1, with “Normalization to viability per well ensures that any changes in cytokines are not due to changes in cell numbers upon drug treatment and normalization to DMSO+LPS allows better comparison between different batches of experiments.” left out

IL-6 [6] = details: other in vitro models deploying 1-10 μg/mL of LPS; ref Jiang et al. 2019; Li et al. 2020; cited from earlier work
[7] = system: HIVIL (iKCs co-cultured with iHeps); test: AlamarBlue cell viability in HIVIL; details: for IC50: Homo sapiens
Method: as §2

cytokines = system: cytokines; design: method as in ref Ganey et al. 2004; Honarmand et al. 2012; Manna and Aggarwal 1999; Yao et al. 2004; details: ref Ganey et al. 2004; Honarmand et al. 2012; Manna and Aggarwal 1999; Yao et al. 2004; cited from earlier work
IL-6 [8] = system: IL-6; design: method as in Steuerwald et al. 2013; Mahdy et al. 2002; Kang et al. 2001; details: ref Steuerwald et al. 2013; Mahdy et al. 2002; Kang et al. 2001; cited from earlier work
IL-6 [9] = test: IL-6 response in HIVIL using THP-1 macrophages co-cultured with iHeps; format: cell-based, human; details: HIVIL with THP-1 instead of iKCs, result in words
Excerpt: Human iPSC cell line iPS (IMR90)-4 was purchased from WiCell Research Institute (Madison, WI), and maintained with a feeder-free method according to the instruction from […] Technologies (Vancouver, BC, Canada). The protocol of differentiation towards iKCs and iHeps as described previously with slight modification ([Tasnim et al., 2019]; [Cai et al., 2012]), respectively. The re-optimized protocol to generate iKCs is discussed in Results section. More details are provided in Supplementary Methods. After differentiation, iKCs was harvested using 0.05 % trypsin-EDTA (Gibco, Waltham, Massachusetts, USA), while iHeps were dissociated with TrypLE^TM (Gibco). iHep suspension was further filtered through a 40 µm cell strainer to remove extracellular matrix clumps. Cell suspension was centrifuged at 1000 rpm for 5 min. For co-culture set up, tissue culture plates were coated with Rat tail collagen I (Gibco) diluted 100-fold in 0.02 N acetic acid, and incubated at 37 °C for 1 h and washed 3 times with PBS. According to the protocol optimized by [Tasnim et al. (2019)], iKCs was firstly seeded at a density of 14,000 per well on 96-well plate with Advanced DMEM (plus supplements) containing 5 % FBS. On the following day, iHeps were added at a density of 35,000 per well in Williams’ Medium E (plus supplements) (iHep: iKCs ratio = 2.5: 1). This reflects the physiological ratio of these cells in vivo under inflammatory conditions ([Tasnim et al., 2021]). Fresh media containing drugs was applied to co-cultures the next day. 50,000 cells were seeded to establish iHeps monoculture. THP-1 cells were kindly obtained from Dr. Eliza Fong and cultured as described by [Zeng et al. (2015)]. Details provided in Supplementary Methods.
THP-1 maintenance and differentiation: THP-1 monocytic lineage was maintained in RPMI 1640 with 10% FBS. For differentiation to macrophages, suspension cells were collected and subjected to 2-day phorbol 12-myristate 13-acetate (PMA) treatment (50 ng/ml), followed by a 1-day PMA-free medium resting. THP-1 macrophages were trypsinzed and used for co-culture as described in Material and methods.
as §1

[10] = binary classification by human hepatotoxicity; ref Thakkar et al. 2020; cited from earlier work
iHeps mono-cultures = system: iHeps mono-cultures; design: method as in Kia et al., 2015; details: ref Kia et al., 2015; cited from earlier work
IL-10 [11] = test: IL-10 ELISA in HIVIL (iKCs co-cultured with iHeps, LPS, 48 hr); format: cell-based, human; details: result in words
Excerpt: Human iPSC cell line iPS (IMR90)-4 was purchased from WiCell Research Institute (Madison, WI), and maintained with a feeder-free method according to the instruction from […] Technologies (Vancouver, BC, Canada). The protocol of differentiation towards iKCs and iHeps as described previously with slight modification ([Tasnim et al., 2019]; [Cai et al., 2012]), respectively. […] More details are provided in Supplementary Methods. After differentiation, iKCs was harvested using 0.05 % trypsin-EDTA (Gibco, Waltham, Massachusetts, USA), while iHeps were dissociated with TrypLE^TM (Gibco). iHep suspension was further filtered through a 40 µm cell strainer to remove extracellular matrix clumps. Cell suspension was centrifuged at 1000 rpm for 5 min. For co-culture set up, tissue culture plates were coated with Rat tail collagen I (Gibco) diluted 100-fold in 0.02 N acetic acid, and incubated at 37 °C for 1 h and washed 3 times with PBS. […]
Enzyme-linked immunosorbent assay (ELISA) for measurement of cytokines: Interleukin-6 (IL-6), interleukin-10 (IL-10) and tumor necrosis factor alpha (TNFα) levels in the media were measured using the corresponding human-based ELISA kits (Abcam, Cambridge, United Kingdom) according to manufacturer’s instructions. […]

[12] = Cammett et al. 2009, Mendes et al. 2014, cited from earlier work
IL-10 [13] = system: IL-10; design: method as in Mahdy et al. 2002; details: ref Mahdy et al. 2002; cited from earlier work
PHH-PHKC co-culture = system: PHH-PHKC co-culture; design: method as in Messner et al., 2013; Sarkar et al., 2017; details: ref Messner et al., 2013; Sarkar et al., 2017; cited from earlier work
PHH = system: PHH; design: method as in Mennecozzi et al., 2015; details: ref Mennecozzi et al., 2015; read-out: IC50 in PHH mono-cultures; cited from earlier work
[14] = 48 h, read-out: IC50: viability

For CC(=O)Nc1ccc(O)cc1 [APAP, acetaminophen], which “IL-6 / cytokine production in iKC mono-culture” value (IL-6 [1]) is on record?
Its value is “remained unchanged”.

What about the IL-6 production (IL-6 [2]) of the same molecule?
Its IL-6 production is “Dose-dependent decrease”.

And the “Reported in-vivo (murine) responses: IL-10” value (IL-10 [3])?
Its value is “IL-10↓”.

What about the DILIrank [4] of the same molecule?
Its DILIrank is “most”.

What about the “reduction of IL-6 in HIVIL” value (IL-6 [5]; 2 mM) of the same molecule?
Its value is about 50%.

What about the “group by drug-dependent IL-6 production” value (IL-6 [5]; HIVIL) of the same molecule?
Its value is “dose-dependent inhibition”.

And the “reduction of IL-6” value (IL-6 [5]; HIVIL)?
Its value is 50%.

And the IL-6 response (IL-6 [5]; HIVIL)?
The IL-6 response was “decreased”.

And the IC50 (IL-6 [5]; HIVIL)?
Its IC50 is 5360 µM.

And the IL-6 change (IL-6 [6])?
Its IL-6 change is “increased”.

What about the IC50 [7, 14] of the same molecule?
Its IC50 is 10200 µM.

And the “viability profiles among iHeps, iKCs and HIVIL” value ([7]; comparison of mono-cultures and co-culture)?
The value was “similar”.

What about the “Reported in-vivo (murine) responses: cytokines” value (cytokines) of the same molecule?
The value was “IL-6/IL-10 are protective factors”.

For O=C(O)Cc1ccccc1Nc1c(Cl)cccc1Cl [DIC, diclofenac], which “Reported human responses: IL-6” value (IL-6 [8]) is on record?
The value was “IL-6↓”.

And the “drug-specific IL-6 response with THP-1 macrophages” value (IL-6 [9])?
Its value is “did not detect”.

What about the DILIst [10] of the same molecule?
Its DILIst is 1.

And the IC50 (iHeps mono-cultures)?
The IC50 was about 1000 µM.

And the IL-6 production (IL-6 [2])?
The IL-6 production was “Dose-dependent decrease”.

What about the IL-10 response (IL-10 [11]) of the same molecule?
The IL-10 response was “decrease”.

And the Cmax ([12]; ref in each cell: Ademisoye et al. 2018, Xu et al. 2008, Agabeyoglu and Incecayir 2009, Rojanasthien et al. 2007, Reunanen et al. 1992, Li et al. 2002, Hong-mei et al. 2013, Bareggi et al. 1987, Jiang et al. 2008)?
Its Cmax is 8 µM.

What about the Cmax ([12]; ref in each cell: Xu et al. 2008) of the same molecule?
Its Cmax is 8 µM.

What about the DILIrank [4] of the same molecule?
Its DILIrank is “most”.

And the IL-6 response (IL-6 [5]; HIVIL)?
Its IL-6 response is “dose-dependent decrease”.

What about the IC50 (IL-6 [5]; HIVIL) of the same molecule?
The IC50 was 112 µM.

And the “Reported human responses: IL-10” value (IL-10 [13])?
Its value is “IL-10↑”.

And the IC50 [7, 14]?
Its IC50 is 385 µM.

And the IC50 ([7]; read-out: IC50 (drug toxicity) in HIVIL)?
Its IC50 is 385 µM.

And the IC50 (PHH-PHKC co-culture)?
Its IC50 is about 127 µM.

And the IC50 (PHH)?
The IC50 was about 1000 µM.
